Inconclusive results and toxic doses are left out. Rule as the data show it: active = T/C of 150% or more; inactive = T/C below 125%.
System: L1210 leukemia ip in BDF1 mice, survival T/C
Assay: NCI In Vivo Anticancer Drug Screen. Data for tumor model L1210 Leukemia (intraperitoneal) in B6D2F1 (BDF1) mice
Settings: endpoint: mean survival time, higher = longer survival
Method in brief: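 Transplantable tumor model; survival measured in treated vs vehicle control mice. Value = treated/control.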

[1] = dose: 100.0 mg/kg/injection, schedule: Q04DX003 (ip), vehicle: Klucel (hydroxypropylcellulose) (HPC)
[2] = dose: 200.0 mg/kg/injection, schedule: Q04DX003 (ip), vehicle: Klucel (hydroxypropylcellulose) (HPC)
[3] = dose: 100.0 mg/kg/injection, schedule: Q01DX001 (ip), vehicle: saline
[4] = dose: 200.0 mg/kg/injection, schedule: Q01DX001 (ip), vehicle: saline
[5] = dose: 100.0 mg/kg/injection, schedule: Q01DX001 (ip), vehicle: carboxymethylcellulose (CMC)
[6] = dose: 200.0 mg/kg/injection, schedule: Q01DX001 (ip), vehicle: carboxymethylcellulose (CMC)
[7] = dose: 400.0 mg/kg/injection, schedule: Q01DX001 (ip), vehicle: carboxymethylcellulose (CMC)
[8] = dose: 50.0 mg/kg/injection, schedule: Q01DX009 (ip), vehicle: saline
[9] = dose: 100.0 mg/kg/injection, schedule: Q01DX009 (ip), vehicle: saline
[10] = dose: 200.0 mg/kg/injection, schedule: Q01DX009 (ip), vehicle: saline
[11] = dose: 100.0 mg/kg/injection, schedule: Q01DX009 (ip), vehicle: saline with Tween-80
[12] = dose: 100.0 mg/kg/injection, schedule: Q04DX003 (ip), vehicle: saline with Tween-80
[13] = dose: 200.0 mg/kg/injection, schedule: Q04DX003 (ip), vehicle: saline with Tween-80
[14] = dose: 400.0 mg/kg/injection, schedule: Q01DX009 (ip), vehicle: saline with Tween-80
[15] = dose: 400.0 mg/kg/injection, schedule: Q04DX003 (ip), vehicle: saline with Tween-80
[16] = dose: 200.0 mg/kg/injection, schedule: Q01DX009 (ip), vehicle: saline with Tween-80

Measured: T/C

CCOC(=O)c1ccc(N=CN(C)C)cc1
inactive: [1] 100 % of control | [2] 95 % of control | dose: 400.0 mg/kg/injection, schedule: Q04DX003 (ip), vehicle: Klucel (hydroxypropylcellulose) (HPC) 107 % of control

Cc1cc2[nH]c(=O)c(=O)[nH]c2cc1C
inactive: dose: 50.0 mg/kg/injection, schedule: Q04DX003 (ip), vehicle: Klucel (hydroxypropylcellulose) (HPC) 104 % of control | dose: 100.0 mg/kg/injection, schedule: Q01DX009 (ip), vehicle: Klucel (hydroxypropylcellulose) (HPC) 105 % of control | [1] 94 % of control | dose: 200.0 mg/kg/injection, schedule: Q01DX009 (ip), vehicle: Klucel (hydroxypropylcellulose) (HPC) 100 % of control | [2] 100 % of control

O=[N+]([O-])c1ccc(Sc2ccsc2)c([N+](=O)[O-])c1
inactive: [3] 101 % of control | [4] 98 % of control

c1ccc2c(c1)c1c(c3ccccc32)CN2CCCC2C1 (stereo not given)
inactive: dose: 50.0 mg/kg/injection, schedule: Q01DX001 (ip), vehicle: carboxymethylcellulose (CMC) 105 % of control | [5] 105 % of control | [6] 92 % of control | [7] 103 % of control

CCC1(C)OC(C)C(C)O1 (stereo not given)
inactive: [8] 100 % of control | [9] 107 % of control | [10] 104 % of control

O=C(Nc1ccccc1)Nc1cc(C(F)(F)F)ccc1Cl
inactive: [11] 86 % of control | [12] 91 % of control | [13] 90 % of control | [14] 92 % of control | [15] 95 % of control

O=c1[nH]nc(S(=O)(=O)N2CCCC2)c(=O)[nH]1
inactive: [5] 98 % of control | [6] 98 % of control | [7] 93 % of control

CC(C)C(=O)Oc1ccc(-c2ccccc2)cc1
inactive: dose: 100.0 mg/kg/injection, schedule: Q04DX002 (ip), vehicle: Klucel (hydroxypropylcellulose) (HPC) 93 % of control | dose: 200.0 mg/kg/injection, schedule: Q04DX002 (ip), vehicle: Klucel (hydroxypropylcellulose) (HPC) 100 % of control | dose: 400.0 mg/kg/injection, schedule: Q04DX002 (ip), vehicle: Klucel (hydroxypropylcellulose) (HPC) 100 % of control

CC(=O)Nc1nc(Cl)c([N+](=O)[O-])c(Cl)n1
inactive: dose: 3.12 mg/kg/injection, schedule: Q04DX002 (ip), vehicle: Klucel (hydroxypropylcellulose) (HPC) 103 % of control | dose: 6.25 mg/kg/injection, schedule: Q04DX002 (ip), vehicle: Klucel (hydroxypropylcellulose) (HPC) 100 % of control | dose: 12.5 mg/kg/injection, schedule: Q01DX001 (ip), vehicle: Klucel (hydroxypropylcellulose) (HPC) 92 % of control | dose: 12.5 mg/kg/injection, schedule: Q04DX002 (ip), vehicle: Klucel (hydroxypropylcellulose) (HPC) 103 % of control

Cn1c(=O)c2c(ncn2CCSCC2=NS(=O)(=O)c3cc(S(N)(=O)=O)c(C(F)(F)F)cc3N2)n(C)c1=O
inactive: dose: 100.0 mg/kg/injection, schedule: Q04DX002 (ip), vehicle: saline 97 % of control | dose: 200.0 mg/kg/injection, schedule: Q04DX002 (ip), vehicle: saline 94 % of control | dose: 400.0 mg/kg/injection, schedule: Q04DX002 (ip), vehicle: saline 94 % of control

CCOC(=O)c1csc(CNC(=O)c2ccccc2)n1
inactive: dose: 100.0 mg/kg/injection, schedule: Q01DX001 (ip), vehicle: saline with Tween-80 107 % of control | [11] 100 % of control | [12] 97 % of control | dose: 200.0 mg/kg/injection, schedule: Q01DX001 (ip), vehicle: saline with Tween-80 98 % of control | [16] 97 % of control | [13] 95 % of control | dose: 400.0 mg/kg/injection, schedule: Q01DX001 (ip), vehicle: saline with Tween-80 104 % of control | [14] 103 % of control | [15] 93 % of control

O=Cc1ccc2c3c(cccc13)CC2
inactive: [3] 96 % of control | [4] 101 % of control | dose: 400.0 mg/kg/injection, schedule: Q01DX001 (ip), vehicle: saline 100 % of control

O=C(Nc1ccccc1C(=O)c1ccccc1)c1ccc(Cl)cc1Cl
inactive: dose: 50.0 mg/kg/injection, schedule: Q01DX009 (ip), vehicle: saline with Tween-80 105 % of control | [11] 94 % of control | [16] 87 % of control

NCc1ccc(F)cc1
inactive: [8] 102 % of control | [9] 95 % of control | dose: 100.0 mg/kg/injection, schedule: Q04DX003 (ip), vehicle: saline 100 % of control | [10] 95 % of control | dose: 200.0 mg/kg/injection, schedule: Q04DX003 (ip), vehicle: saline 92 % of control

From PubChem BioAssay AID248 (DTP/NCI, 2004)
